Legend:
Assay in all cases: relative viability (nuclei count vs DMSO), 5 days (fraction); higher = more cells survive
Metformin + Luminespib = compound: CN(C)C(=N)NC(=N)N [Metformin] + CCNC(=O)c1noc(-c2cc(C(C)C)c(O)cc2O)c1-c1ccc(CN2CCOCC2)cc1 [Luminespib] (partner 0.01 µM)
Method in brief: (§1)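 For relative viability, nuclei counts in treated wells were divided by those in vehicle wells. Lung cancer cell lines had been pin-tool dosed in 1536-well plates the day after seeding and cultured for 5 days, then fixed and stained in one step (final 0.05% Triton X-100, 1% formaldehyde, 1 ug/ml Hoechst) and imaged at 4×. Doses were one drug alone or a fixed anchor-drug dose plus five library-drug doses (not always all listed) in √10 steps, and values are duplicate-plate medians.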

Metformin + Phenformin = compound: CN(C)C(=N)NC(=N)N [Metformin] + N=C(N)NC(=N)NCCc1ccccc1 [Phenformin] (partner 250 µM)
Method in brief: as §1

Apatinib + Navitoclax = compound: N#CC1(c2ccc(NC(=O)c3cccnc3NCc3ccncc3)cc2)CCCC1 [Apatinib] + CC1(C)CCC(c2ccc(Cl)cc2)=C(CN2CCN(c3ccc(C(=O)NS(=O)(=O)c4ccc(N[C@H](CCN5CCOCC5)CSc5ccccc5)c(S(=O)(=O)C(F)(F)F)c4)cc3)CC2)C1 [Navitoclax] (partner 0.5 µM)
Method in brief: as §1

Apatinib + Dasatinib = compound: N#CC1(c2ccc(NC(=O)c3cccnc3NCc3ccncc3)cc2)CCCC1 [Apatinib] + Cc1nc(Nc2ncc(C(=O)Nc3c(C)cccc3Cl)s2)cc(N2CCN(CCO)CC2)n1 [Dasatinib] (partner 0.075 µM)
Method in brief: as §1

NCI-H460
relative viability (Metformin + Luminespib; first compound 10 µM): 0.048 | relative viability (Metformin + Luminespib; first compound 31.62 µM): 0.0359 | relative viability (Metformin + Luminespib; first compound 100 µM): 0.0322 | relative viability (Metformin + Luminespib; first compound 316.23 µM): 0.0306 | relative viability (Metformin + Luminespib; first compound 1000 µM): 0.0333 | relative viability (Metformin + Phenformin; first compound 10 µM): 0.426 | relative viability (Metformin + Phenformin; first compound 31.62 µM): 0.541 | relative viability (Metformin + Phenformin; first compound 100 µM): 0.516 | relative viability (Metformin + Phenformin; first compound 316.23 µM): 0.509 | relative viability (Metformin + Phenformin; first compound 1000 µM): 0.523 | relative viability (Apatinib + Navitoclax; first compound 0.08 µM): 1.1 | relative viability (Apatinib + Navitoclax; first compound 0.253 µM): 1.14 | relative viability (Apatinib + Navitoclax; first compound 0.8 µM): 1.03 | relative viability (Apatinib + Navitoclax; first compound 2.53 µM): 1.06 | relative viability (Apatinib + Navitoclax; first compound 8 µM): 1.05 | relative viability (Apatinib + Dasatinib; first compound 0.08 µM): 0.468 | relative viability (Apatinib + Dasatinib; first compound 0.253 µM): 0.477 | relative viability (Apatinib + Dasatinib; first compound 0.8 µM): 0.426 | relative viability (Apatinib + Dasatinib; first compound 2.53 µM): 0.487 | relative viability (Apatinib + Dasatinib; first compound 8 µM): 0.413
